The subject of data set [1] is Trypanosoma cruzi. Briefly: Antitrypanosomal activity against Trypanosoma cruzi Y epimastigotes assessed as parasite growth inhibition measured after 72 hrs by hemocytometer chamber based analysis. The data set is classed as functional, organism-based.
A short description of data set [2]: Selectivity index, ratio of EC50 for Cytotoxicity against monkey LLC-MK2 cells to EC50 for antitrypanosomal activity against Trypanosoma cruzi Y trypomastigotes infected in monkey LLC-MK2 cells. To be noted: read-out: Ratio EC50. The format is toxicity, cell-based.
Data set [3] deals with Trypanosoma cruzi. The data set is described as follows: Induction of cell death in Trypanosoma cruzi Y epimastigotes assessed as early apoptotic cells at 13.5 uM incubated for 24 hrs by Annexin V/7-AAD staining based flow cytometric analysis (reference value: 0.11 %). The format is functional.
The nature of data set [4]: Selectivity index, ratio of EC50 for Cytotoxicity against monkey LLC-MK2 cells to EC50 for antitrypanosomal activity against Trypanosoma cruzi Y amastigotes infected in monkey LLC-MK2 cells assessed as reduction in reduction in amastigotes per 100 cells measured after 48 hrs by Giemsa staining based analysis. The format is toxicity, cell-based. To be noted: read-out: Ratio EC50.

Data set [5] concerns Trypanosoma cruzi. Briefly: Antitrypanosomal activity against Trypanosoma cruzi Y amastigotes infected in monkey LLC-MK2 cells assessed as reduction in reduction in amastigotes per 100 cells measured after 48 hrs by Giemsa staining based analysis. Particulars: LLC-MK2, 48 h. The data set is classed as functional, organism-based.
In data set [6] the test system is Trypanosoma cruzi. The data set is described as follows: Induction of cell death in Trypanosoma cruzi Y epimastigotes assessed as late apoptotic cells at 13.5 uM incubated for 24 hrs by Annexin V/7-AAD staining based flow cytometric analysis (reference value: 0.12 %). The format is functional. In general terms: A flow cytometer gives signals particle by particle.

Data set [7] can be described thus: Cytotoxicity against monkey LLC-MK2 cells assessed as reduction in cell viability incubated for 48 hrs by MTT assay. The format is toxicity, cell-based. Particulars: Macaca mulatta (monkey).
Data set [8] has as its system Trypanosoma cruzi. Briefly: Induction of oxidative stress in Trypanosoma cruzi Y epimastigotes assessed as increase in ROS formation at 13.5 uM incubated for 24 hrs by DCFH-DA staining based analysis relative to control. The format is functional.
Data set [9] deals with Trypanosoma cruzi. The data set is described as follows: Antitrypanosomal activity against Trypanosoma cruzi Y trypomastigotes infected in monkey LLC-MK2 cells assessed as reduction in cell death inducing capability incubated for 24 hrs by hemocytometer chamber based analysis. The format is functional, organism-based. Particulars: LLC-MK2, 24 h.
Data set [10] concerns Trypanosoma cruzi. The data set is described as follows: Induction of cell death in Trypanosoma cruzi Y epimastigotes assessed as dead cells at 13.5 uM incubated for 24 hrs by Annexin V/7-AAD staining based flow cytometric analysis (reference value: 1.13 %). The data set is classed as functional.
For data set [11], the system named is Trypanosoma cruzi. Briefly: Induction of membrane damage in Trypanosoma cruzi Y epimastigotes at EC50 measured after 12 hrs by SEM analysis. The format is organism-based. Particulars: Cell membrane.
The nature of data set [12]: Cytotoxicity against monkey LLC-MK2 cells assessed as reduction in cell viability incubated for 24 hrs by MTT assay. The data set is classed as toxicity, cell-based. Particulars: Macaca mulatta (monkey).
For data set [13], the system named is Trypanosoma cruzi. The data set is described as follows: Antitrypanosomal activity against Trypanosoma cruzi Y amastigotes infected in monkey LLC-MK2 cells assessed as reduction in reduction in amastigotes per 100 cells measured after 24 hrs by Giemsa staining based analysis. Particulars: LLC-MK2, 24 h. The data set is classed as functional, organism-based.

The test system of data set [14] is Trypanosoma cruzi. Briefly: Antitrypanosomal activity against Trypanosoma cruzi Y epimastigotes assessed as parasite growth inhibition measured after 24 hrs by hemocytometer chamber based analysis. The data set is classed as functional, organism-based.
Data set [15] has as its system Trypanosoma cruzi. The data set is described as follows: Induction of cell death in Trypanosoma cruzi Y epimastigotes assessed as live cells at 13.5 uM incubated for 24 hrs by Annexin V/7-AAD staining based flow cytometric analysis (reference value: 98.6 %). The data set is classed as functional.
The subject of data set [16] is Trypanosoma cruzi. Briefly: Antitrypanosomal activity against Trypanosoma cruzi Y epimastigotes assessed as parasite growth inhibition measured after 48 hrs by hemocytometer chamber based analysis. The format is functional, organism-based.
Data set [17] can be described thus: Selectivity index, ratio of EC50 for Cytotoxicity against monkey LLC-MK2 cells to EC50 for antitrypanosomal activity against Trypanosoma cruzi Y amastigotes infected in monkey LLC-MK2 cells assessed as reduction in reduction in amastigotes per 100 cells measured after 24 hrs by Giemsa staining based analysis. The format is toxicity, cell-based. To be noted: read-out: Ratio EC50.

Data set [18] has as its system Trypanosoma cruzi. The data set is described as follows: Antitrypanosomal activity against Trypanosoma cruzi Y trypomastigotes infected in monkey LLC-MK2 cells assessed as reduction in cell death inducing capability incubated for 24 hrs by Neubauer chamber based analysis. The data set is classed as functional, organism-based. Particulars: LLC-MK2, 24 h.
The subject of data set [19] is Trypanosoma cruzi. Briefly: Induction of oxidative stress in Trypanosoma cruzi Y epimastigotes assessed as increase in ROS formation at 7.2 uM incubated for 24 hrs by DCFH-DA staining based analysis relative to control. The format is functional.
Data set [20] relates to Trypanosoma cruzi. The data set is described as follows: Induction of mitochondrial membrane potential loss in Trypanosoma cruzi Y epimastigotes at 7.2 uM incubated for 24 hrs by Rhodamine 123 staining based flow cytometric analysis relative to control. The format is functional.
Data set [21] relates to Trypanosoma cruzi. Briefly: Induction of cell death in Trypanosoma cruzi Y epimastigotes assessed as live cells at 7.2 uM incubated for 24 hrs by Annexin V/7-AAD staining based flow cytometric analysis (reference value: 98.6 %). The format is functional.
The test system of data set [22] is Trypanosoma cruzi. The data set is described as follows: Induction of cell death in Trypanosoma cruzi Y epimastigotes assessed as late apoptotic cells at 7.2 uM incubated for 24 hrs by Annexin V/7-AAD staining based flow cytometric analysis (reference value: 0.12 %). The data set is classed as functional.
The subject of data set [23] is Trypanosoma cruzi. Briefly: Induction of cell death in Trypanosoma cruzi Y epimastigotes assessed as early apoptotic cells at 7.2 uM incubated for 24 hrs by Annexin V/7-AAD staining based flow cytometric analysis (reference value: 0.11 %). The data set is classed as functional.
In data set [24] the test system is Trypanosoma cruzi. Briefly: Induction of cell death in Trypanosoma cruzi Y epimastigotes assessed as dead cells at 7.2 uM incubated for 24 hrs by Annexin V/7-AAD staining based flow cytometric analysis (reference value: 1.13 %). The format is functional.
In data set [25] the test system is Trypanosoma cruzi. Briefly: Induction of cell death in Trypanosoma cruzi Y epimastigotes assessed as dead cells at 125 uM incubated for 24 hrs by Annexin V/7-AAD staining based flow cytometric analysis (reference value: 1.13 %). The format is functional.
In data set [26] the test system is Trypanosoma cruzi. Briefly: Induction of mitochondrial membrane potential loss in Trypanosoma cruzi Y epimastigotes at 125 uM incubated for 24 hrs by Rhodamine 123 staining based flow cytometric analysis relative to control. The format is functional.
Data set [27] deals with Trypanosoma cruzi. The data set is described as follows: Induction of cell death in Trypanosoma cruzi Y epimastigotes assessed as early apoptotic cells at 125 uM incubated for 24 hrs by Annexin V/7-AAD staining based flow cytometric analysis (reference value: 0.11 %). The data set is classed as functional.
Data set [28] concerns Trypanosoma cruzi. Briefly: Induction of cell death in Trypanosoma cruzi Y epimastigotes assessed as late apoptotic cells at 125 uM incubated for 24 hrs by Annexin V/7-AAD staining based flow cytometric analysis (reference value: 0.12 %). The format is functional.
The subject of data set [29] is Trypanosoma cruzi. The data set is described as follows: Induction of cell death in Trypanosoma cruzi Y epimastigotes assessed as live cells at 125 uM incubated for 24 hrs by Annexin V/7-AAD staining based flow cytometric analysis (reference value: 98.6 %). The data set is classed as functional.

Calls of active or inactive are those of the source. No cut-off for these calls is given here.

H-FWKTLAKWALKAIPA-OH: the EC50 (in general, the midpoint of the concentration-response curve) worked out at 19.3 µM in the data set on Trypanosoma cruzi [1]; 0.28 µM in the data set with Trypanosoma cruzi [5]; 0.86 µM in the data set on Trypanosoma cruzi [9]; 0.91 µM in the data set on Trypanosoma cruzi [13]; 13.5 µM in the data set with Trypanosoma cruzi [14]; 16.8 µM with Trypanosoma cruzi [16]. Further, the selectivity ratio in [2] was determined as 85.3. The Activity is 0.01% in the data set on Trypanosoma cruzi [3]; 1.04% in the data set with Trypanosoma cruzi [6]; 58% in the data set with Trypanosoma cruzi [8]; 25.06% with Trypanosoma cruzi [10]; 74.1% in the data set with Trypanosoma cruzi [15]. Further, the selectivity ratio at 48 h in data set [4] is 157. In addition, in data set [7], the EC50 at 48 h was determined as 43.9 µM. The result with Trypanosoma cruzi [11] was Active. In addition, the EC50 at 24 h in data set [12] was 73.4 µM. The selectivity ratio at 24 h in data set [17] was found to be 80.7.

For H-FWGTLARWALKAIPA-OH, the selectivity ratio in data set [2] came to 10.8. Also, the EC50 with Trypanosoma cruzi [9] turned out to be 5.1 µM. The EC50 at 24 h in data set [12] was determined as 55 µM.

Consider H-FWGTLAKWALKAIPA-OH, for which the selectivity ratio in data set [2] is less than 50. The EC50 with Trypanosoma cruzi [9] was more than 50 µM. Moreover, the EC50 at 24 h in data set [12] is more than 50 µM.

As to H-FWRTLAKWALKAIPA-OH, the selectivity ratio in data set [2] turned out to be 18.8. Also, the EC50 in the data set with Trypanosoma cruzi [9] worked out at 0.69 µM. Moreover, the EC50 at 24 h in [12] was 13 µM.

On to H-FWGTLAKWALKAIPAAMGMKQNK-OH, for which the EC50 stood at 2.4 µM in the data set with Trypanosoma cruzi [1], 0.32 µM with Trypanosoma cruzi [18], 4.7 µM in the data set on Trypanosoma cruzi [14] and 3.6 µM in the data set with Trypanosoma cruzi [16]. Besides, in data set [2], the selectivity ratio came to 80.3. The concentration giving a half-maximal response (EC50) at 24 h in data set [12] is 25.7 µM.

Consider H-AIPAAMGMKQNK-OH, for which the EC50 in the data set on Trypanosoma cruzi [1] was 8.7 µM; with Trypanosoma cruzi [5], 0.37 µM; in the data set on Trypanosoma cruzi [9] it was 0.59 µM; in the data set with Trypanosoma cruzi [13], 1.32 µM; in the data set with Trypanosoma cruzi [14], 7.2 µM; in the data set on Trypanosoma cruzi [16], 9.7 µM. Also, the selectivity ratio in data set [2] was 72.9. Besides, the selectivity ratio at 48 h in data set [4] was 96.7. Also, the Activity is on record as 40% in the data set on Trypanosoma cruzi [19]; 65% with Trypanosoma cruzi [20]; 85.36% in the data set on Trypanosoma cruzi [21]; 1.09% in the data set with Trypanosoma cruzi [22]; 1.13% in the data set on Trypanosoma cruzi [23]; 12.42% in the data set on Trypanosoma cruzi [24]. For the same compound, the EC50 at 48 h in data set [7] is 35.8 µM. Besides, the outcome with Trypanosoma cruzi [11] was Active. For the same compound, the EC50 at 24 h in data set [12] is 43.1 µM. Further, the selectivity ratio at 24 h in data set [17] came out at 32.6.

On to H-GTLAKWALKAIPA-OH, for which the selectivity ratio in data set [2] came to 21.6. Besides, in the data set on Trypanosoma cruzi [9], the EC50 amounted to 8.76 µM. For the same compound, in data set [12], the half-maximal effective concentration (EC50) at 24 h was determined as 189 µM.

With H-FWGKLAKWALKAIPA-OH, the selectivity ratio in data set [2] amounted to 58.2. The concentration giving a half-maximal response (EC50) with Trypanosoma cruzi [9] came to 1.03 µM. For the same compound, in data set [12], the EC50 at 24 h amounted to 60 µM.

With H-FWGTLAKWARKAIPA-OH, the selectivity ratio in [2] was 7.5. The EC50 in the data set with Trypanosoma cruzi [9] amounted to 3.31 µM. The EC50 at 24 h in data set [12] came to 25.1 µM.

Consider H-FWGRLAKWALKAIPA-OH, for which the selectivity ratio in data set [2] stood at 8.8. Moreover, the EC50 in the data set with Trypanosoma cruzi [9] worked out at 1.09 µM. Also, the EC50 at 24 h in [12] is 9.6 µM.

Regarding H-FWGTLAKWALRAIPA-OH, in data set [2], the selectivity ratio stood at 24.7. Further, the EC50 in the data set on Trypanosoma cruzi [9] was determined as 1.54 µM. In addition, the EC50 at 24 h in data set [12] amounted to 38.5 µM.

With `O=C(Cn1ccnc1[N+](=O)[O-])NCc1ccccc1` [BENZNIDAZOLE], the EC50 in the data set with Trypanosoma cruzi [1] worked out at 22.1 µM; in the data set on Trypanosoma cruzi [9], 161 µM; in the data set on Trypanosoma cruzi [14] it was 115 µM; in the data set with Trypanosoma cruzi [16], 37.4 µM. Moreover, the selectivity ratio in data set [2] worked out at 3.11. The Activity with Trypanosoma cruzi [25] amounted to 5.71%; with Trypanosoma cruzi [26] it was 70%; in the data set with Trypanosoma cruzi [27], 0.06%; in the data set on Trypanosoma cruzi [28], 1.01%; in the data set with Trypanosoma cruzi [29], 93.22%. Besides, in data set [12], the EC50 at 24 h amounted to 503 µM.

Take H-FWGTLAKWAKKAIPA-OH: in the data set on Trypanosoma cruzi [9], the EC50 came out at 1.09 µM. In addition, the EC50 at 24 h in data set [12] is 97 µM.

The values above are taken from ChEMBL document CHEMBL5108005, “Rational design of a trypanocidal peptide derived from Dinoponera quadriceps venom” (Eur J Med Chem, 2022).
